Data as given in PubChem BioAssay (NCI).
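GI50 is the concentration that inhibits growth by half. TGI: concentration producing complete growth inhibition.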

Tests used:
Assay in all cases: DTP human tumour cell line panel, 384-well format
SK-OV-3 ovarian = system: SK-OV-3 ovarian
SW-620 colon = system: SW-620 colon
BT-549 breast = system: BT-549 breast
SK-MEL-2 melanoma = system: SK-MEL-2 melanoma
HT29 colon = system: HT29 colon
CCRF-CEM leukemia = system: CCRF-CEM leukemia
MDA-MB-435 melanoma = system: MDA-MB-435 melanoma
U251 glioblastoma = system: U251 glioblastoma
OVCAR-8 ovarian = system: OVCAR-8 ovarian
UACC-62 melanoma = system: UACC-62 melanoma
SK-MEL-5 melanoma = system: SK-MEL-5 melanoma
OVCAR-5 ovarian = system: OVCAR-5 ovarian
M14 melanoma = system: M14 melanoma
TK-10 renal = system: TK-10 renal
LOX IMVI melanoma = system: LOX IMVI melanoma
NCI/ADR-RES ovarian = system: NCI/ADR-RES ovarian
786-0 renal = system: 786-0 renal
ACHN renal = system: ACHN renal
A498 renal = system: A498 renal
SK-MEL-28 melanoma = system: SK-MEL-28 melanoma
A549 NSCLC = system: A549 NSCLC
HOP-92 NSCLC = system: HOP-92 NSCLC
SNB-19 CNS = system: SNB-19 CNS
HCT-116 colon = system: HCT-116 colon
HL-60(TB) leukemia = system: HL-60(TB) leukemia
NCI-H23 lung = system: NCI-H23 lung
RXF 393 renal = system: RXF 393 renal
UO-31 renal = system: UO-31 renal
DU-145 prostate = system: DU-145 prostate
RPMI-8226 leukemia = system: RPMI-8226 leukemia
IGROV1 ovarian = system: IGROV1 ovarian
NCI-H460 NSCLC = system: NCI-H460 NSCLC
SR leukemia = system: SR leukemia
UACC-257 melanoma = system: UACC-257 melanoma
COLO 205 colon = system: COLO 205 colon
SNB-75 CNS = system: SNB-75 CNS
EKVX NSCLC = system: EKVX NSCLC
SF-268 CNS = system: SF-268 CNS
SN12C renal = system: SN12C renal
OVCAR-3 ovarian = system: OVCAR-3 ovarian
HS 578T breast = system: HS 578T breast
SF-295 CNS = system: SF-295 CNS
MDA-MB-231 breast = system: MDA-MB-231 breast
NCI-H226 lung = system: NCI-H226 lung
MOLT-4 leukemia = system: MOLT-4 leukemia
HCC-2998 colon = system: HCC-2998 colon
PC-3 prostate = system: PC-3 prostate
MALME-3M melanoma = system: MALME-3M melanoma
NCI-H322M lung = system: NCI-H322M lung
OVCAR-4 ovarian = system: OVCAR-4 ovarian
MCF7 breast = system: MCF7 breast
KM12 colon = system: KM12 colon
CAKI-1 renal = system: CAKI-1 renal
K-562 leukemia = system: K-562 leukemia
SF-539 CNS = system: SF-539 CNS
NCI-H522 lung = system: NCI-H522 lung
HCT-15 colon = system: HCT-15 colon
T-47D breast = system: T-47D breast
HOP-62 NSCLC = system: HOP-62 NSCLC

## CN1C(=O)[C@@H](NC(=O)[C@H](CCC(F)(F)F)[C@H](CCC(F)(F)F)C(N)=O)N=C(c2ccccc2)c2ccccc21
SK-OV-3 ovarian
  GI50: > 100 µM
  TGI: > 100 µM
SW-620 colon
  GI50: > 100 µM
  TGI: > 100 µM
BT-549 breast
  GI50: > 100 µM
  TGI: > 100 µM
SK-MEL-2 melanoma
  GI50: > 100 µM
  TGI: > 100 µM
HT29 colon
  GI50: 62.5 µM
  TGI: > 100 µM
CCRF-CEM leukemia
  GI50: 53.3 µM
  TGI: > 100 µM
MDA-MB-435 melanoma
  GI50: > 100 µM
  TGI: > 100 µM
U251 glioblastoma
  GI50: 98.8 µM
  TGI: > 100 µM
OVCAR-8 ovarian
  GI50: > 100 µM
  TGI: > 100 µM
UACC-62 melanoma
  GI50: > 100 µM
  TGI: > 100 µM
SK-MEL-5 melanoma
  GI50: > 59.4 µM
  TGI: > 100 µM
OVCAR-5 ovarian
  GI50: > 100 µM
  TGI: > 100 µM
M14 melanoma
  GI50: > 100 µM
  TGI: > 100 µM
TK-10 renal
  GI50: > 100 µM
  TGI: > 100 µM
LOX IMVI melanoma
  GI50: > 100 µM
  TGI: > 100 µM
NCI/ADR-RES ovarian
  GI50: > 100 µM
  TGI: > 100 µM
786-0 renal
  GI50: 87.1 µM
  TGI: > 100 µM
ACHN renal
  GI50: > 100 µM
  TGI: > 100 µM
A498 renal
  GI50: 42 µM
  TGI: > 100 µM
SK-MEL-28 melanoma
  GI50: > 83.8 µM
  TGI: > 100 µM
A549 NSCLC
  GI50: 67.5 µM
  TGI: > 100 µM
HOP-92 NSCLC
  GI50: 33.9 µM
  TGI: > 100 µM
SNB-19 CNS
  GI50: > 100 µM
  TGI: > 100 µM
HCT-116 colon
  GI50: > 92.7 µM
  TGI: > 100 µM
HL-60(TB) leukemia
  GI50: > 51.6 µM
  TGI: > 100 µM
NCI-H23 lung
  GI50: > 100 µM
  TGI: > 100 µM
RXF 393 renal
  GI50: 23.9 µM
  TGI: > 84.7 µM
UO-31 renal
  GI50: 60.1 µM
  TGI: > 100 µM
DU-145 prostate
  GI50: > 100 µM
  TGI: > 100 µM
RPMI-8226 leukemia
  GI50: 48.3 µM
  TGI: > 100 µM
IGROV1 ovarian
  GI50: > 100 µM
  TGI: > 100 µM
NCI-H460 NSCLC
  GI50: 84.4 µM
  TGI: > 100 µM
SR leukemia
  GI50: 13.6 µM
  TGI: 33.6 µM
UACC-257 melanoma
  GI50: > 63.2 µM
  TGI: > 100 µM
COLO 205 colon
  GI50: > 79.5 µM
  TGI: > 100 µM
SNB-75 CNS
  GI50: 17.3 µM
  TGI: 96.8 µM
EKVX NSCLC
  GI50: > 100 µM
  TGI: > 100 µM
SF-268 CNS
  GI50: > 43.9 µM
  TGI: > 90.2 µM
SN12C renal
  GI50: > 100 µM
  TGI: > 100 µM
OVCAR-3 ovarian
  GI50: 55.9 µM
  TGI: > 100 µM
HS 578T breast
  GI50: 24.7 µM
  TGI: > 100 µM
SF-295 CNS
  GI50: 99.5 µM
  TGI: > 100 µM
MDA-MB-231 breast
  GI50: > 93.3 µM
  TGI: > 100 µM
NCI-H226 lung
  GI50: > 52.7 µM
  TGI: > 100 µM
MOLT-4 leukemia
  GI50: 19.8 µM
  TGI: > 100 µM
HCC-2998 colon
  GI50: > 100 µM
  TGI: > 100 µM
PC-3 prostate
  GI50: > 94.6 µM
  TGI: > 100 µM
MALME-3M melanoma
  GI50: > 100 µM
  TGI: > 100 µM
NCI-H322M lung
  GI50: > 100 µM
  TGI: > 100 µM
OVCAR-4 ovarian
  GI50: 43.4 µM
  TGI: > 100 µM
MCF7 breast
  GI50: 40.9 µM
  TGI: > 100 µM
KM12 colon
  GI50: > 100 µM
  TGI: > 100 µM
CAKI-1 renal
  GI50: 58.2 µM
  TGI: > 100 µM
K-562 leukemia
  GI50: 71.6 µM
  TGI: > 100 µM
SF-539 CNS
  GI50: > 100 µM
  TGI: > 100 µM
NCI-H522 lung
  GI50: 79.9 µM
  TGI: > 100 µM
HCT-15 colon
  GI50: > 95.7 µM
  TGI: > 100 µM
T-47D breast
  GI50: 14.6 µM
  TGI: 65 µM
HOP-62 NSCLC
  GI50: > 100 µM
  TGI: > 100 µM
